Values of other authors in patent US20230346696A1, “SPRAY DRIED LOW HYGROSCOPICITY ACTIVE POWDER COMPOSITIONS” (PHILIP MORRIS PRODUCTS S.A., priority 2020, published 2023).

Conditions: 25° C.

solubility: 69 g/100 ml water
Compound: OC[C@H]1O[C@H](O[C@H]2O[C@H](CO)[C@@H](O)[C@H](O)[C@H]2O)[C@H](O)[C@@H](O)[C@@H]1O [trehalose]
